Source: patent US20260240810A1, “COMPOSITIONS AND METHODS FOR REDUCING ADVERSE SIDE EFFECTS IN CANCER TREATMENT” (priority 2022, published 2026)

Tests used:
[1] = Repeated-dose toxicity study in dogs; format: in vivo
Method: Repeated-dose toxicity studies of RRx-001 (3 times/week up to 4 weeks in duration) were conducted in rats at dose levels of 12 mg/kg, 20.1 mg/kg, and 30 mg/kg per day and in dogs at dose levels of 4 mg/kg, 8 mg/kg, and 12 mg/kg per day (due to clinical signs, the 8 mg/kg and 12 mg/kg doses were reduced to 3 mg/kg and 5 mg/kg on Day 4). The no observed adverse effect level was <12 mg/kg in rats and 5 mg/kg in dogs.

[2] = PREVLAR trial: adverse events; format: in vivo, human
Description: Of potential significance for OM, decreased rates of several pathognomonic toxicities were seen (see Table 4).
• CTCAEv.4 are a set of criteria for the standardized classification of AEs of drugs used in cancer therapy.

[3] = Arm 1: RRx-001 Pre-treatment + SOC Chemoradiation (N = 12)
[4] = Arm 1: RRx-001 pretreatment + SOC chemoradiation
[5] = Arm 2: RRx-001 Pre-treatment + 2 Concurrent Doses + SOC Chemoradiation (N = 11)

O=C(CBr)N1CC([N+](=O)[O-])([N+](=O)[O-])C1 [RRx-001, 2-bromo-1-(3,3-dinitroazetidin-1-yl) ethan-1-one]
1%: related vomiting ([2]; Arm 1) | related vomiting ([2]; Arm 2)
Effects on lungs were observed: organ effects ([1]; repeated dose)
1 (9.1): reported adverse events (CTCAEv.4): Candida infection [2, 5] | reported adverse events (CTCAEv.4): Oral pain [2, 5] | reported adverse events (CTCAEv.4): Vomiting [2, 5]
8.3%: SAE frequency: Anemia [2, 4] | SAE frequency: Atrial flutter [2, 4] | SAE frequency: Decreased appetite [2, 4] | SAE frequency: Dysgeusia [2, 4] | SAE frequency: Febrile neutropenia [2, 4] | SAE frequency: Hypertension [2, 4] | SAE frequency: Hypoacusis [2, 4] | SAE frequency: Hypokalemia [2, 4] | SAE frequency: Nausea [2, 4] | SAE frequency: Neutrophil count decreased [2, 4] | SAE frequency: Respiratory tract infection [2, 4] | SAE frequency: Vomiting [2, 4] | SAE frequency: Weight decreased [2, 4]
none: radiation-induced skin injury ([2]; Arm 1, p=0.0007 vs control)
0%: Related anemia ([2]; Arm 1) | neutrophil count decrease ([2]; Arm 1) | related oral dysesthesia ([2]; Arm 1) | Oral pain ([2]; Arm 1, p=0.0095 vs control) | related constipation ([2]; Arm 1, p=0.0095 vs control) | Related anemia ([2]; Arm 2) | neutrophil count decrease ([2]; Arm 2) | related constipation ([2]; Arm 2) | related oral dysesthesia ([2]; Arm 2)
18.2%: radiation-induced skin injury ([2]; Arm 2) | SAE frequency: Acute kidney injury ([2]; Arm 2: RRx-001 pretreatment + 2 concurrent doses + SOC chemoradiation)
9.1%: Oral pain ([2]; Arm 2)
5 mg/kg: no observed adverse effect level ([1]; 3 times/week up to 4 weeks)
1 (8.3): reported adverse events (CTCAEv.4): Oral candidiasis [2, 3] | reported adverse events (CTCAEv.4): Vomiting [2, 3]
33.3%: SAE frequency: Lymphocyte count decreased [2, 4]
0 (0): reported adverse events (CTCAEv.4): Anemia [2, 3] | reported adverse events (CTCAEv.4): Blood creatinine increased [2, 3] | reported adverse events (CTCAEv.4): Blood urea increased [2, 3] | reported adverse events (CTCAEv.4): Candida infection [2, 3] | reported adverse events (CTCAEv.4): Constipation [2, 3] | reported adverse events (CTCAEv.4): Decreased appetite [2, 3] | reported adverse events (CTCAEv.4): Dermatitis [2, 3] | reported adverse events (CTCAEv.4): Dry mouth [2, 3] | reported adverse events (CTCAEv.4): Dysgeusia [2, 3] | reported adverse events (CTCAEv.4): Dysphagia [2, 3] | reported adverse events (CTCAEv.4): Glossodynia [2, 3] | reported adverse events (CTCAEv.4): Laryngeal inflammation [2, 3] | reported adverse events (CTCAEv.4): Neutrophil count decreased [2, 3] | reported adverse events (CTCAEv.4): Oral dysaesthesia [2, 3] | reported adverse events (CTCAEv.4): Oral dysesthesia [2, 3] | reported adverse events (CTCAEv.4): Oral pain [2, 3] | reported adverse events (CTCAEv.4): Platelet count decreased [2, 3] | reported adverse events (CTCAEv.4): Radiation skin injury [2, 3] | reported adverse events (CTCAEv.4): Salivary duct inflammation [2, 3] | reported adverse events (CTCAEv.4): Weight decreased [2, 3] | reported adverse events (CTCAEv.4): White blood cell count decreased [2, 3] | reported adverse events (CTCAEv.4): Anemia [2, 5] | reported adverse events (CTCAEv.4): Blood urea increased [2, 5] | reported adverse events (CTCAEv.4): Constipation [2, 5] | reported adverse events (CTCAEv.4): Decreased appetite [2, 5] | reported adverse events (CTCAEv.4): Dermatitis [2, 5] | reported adverse events (CTCAEv.4): Dry mouth [2, 5] | reported adverse events (CTCAEv.4): Dysgeusia [2, 5] | reported adverse events (CTCAEv.4): Dysphagia [2, 5] | reported adverse events (CTCAEv.4): Glossodynia [2, 5] | reported adverse events (CTCAEv.4): Laryngeal inflammation [2, 5] | reported adverse events (CTCAEv.4): Neutrophil count decreased [2, 5] | reported adverse events (CTCAEv.4): Oral candidiasis [2, 5] | reported adverse events (CTCAEv.4): Oral dysaesthesia [2, 5] | reported adverse events (CTCAEv.4): Oral dysesthesia [2, 5] | reported adverse events (CTCAEv.4): Platelet count decreased [2, 5] | reported adverse events (CTCAEv.4): Salivary duct inflammation [2, 5] | reported adverse events (CTCAEv.4): Weight decreased [2, 5] | reported adverse events (CTCAEv.4): White blood cell count decreased [2, 5]
2 (18.2): reported adverse events (CTCAEv.4): Blood creatinine increased [2, 5] | reported adverse events (CTCAEv.4): Radiation skin injury [2, 5]
16.7%: SAE frequency: Oropharyngeal pain [2, 4] | SAE frequency: White blood cell count decreased [2, 4]
